One experiment deals with Hsc70 (Mus musculus, UniProt P63017). In words: DRaCALA with [α-32P]ATP. Format: binding.
The next experiment concerns the target Hsc70 C17W (Mus musculus, UniProt P63017, C17W). Description: DRaCALA with [α-32P]ATP. The experiment is classed as binding.

Each structure is given as a SMILES string.

Sequence of Hsc70 (P63017 5-554): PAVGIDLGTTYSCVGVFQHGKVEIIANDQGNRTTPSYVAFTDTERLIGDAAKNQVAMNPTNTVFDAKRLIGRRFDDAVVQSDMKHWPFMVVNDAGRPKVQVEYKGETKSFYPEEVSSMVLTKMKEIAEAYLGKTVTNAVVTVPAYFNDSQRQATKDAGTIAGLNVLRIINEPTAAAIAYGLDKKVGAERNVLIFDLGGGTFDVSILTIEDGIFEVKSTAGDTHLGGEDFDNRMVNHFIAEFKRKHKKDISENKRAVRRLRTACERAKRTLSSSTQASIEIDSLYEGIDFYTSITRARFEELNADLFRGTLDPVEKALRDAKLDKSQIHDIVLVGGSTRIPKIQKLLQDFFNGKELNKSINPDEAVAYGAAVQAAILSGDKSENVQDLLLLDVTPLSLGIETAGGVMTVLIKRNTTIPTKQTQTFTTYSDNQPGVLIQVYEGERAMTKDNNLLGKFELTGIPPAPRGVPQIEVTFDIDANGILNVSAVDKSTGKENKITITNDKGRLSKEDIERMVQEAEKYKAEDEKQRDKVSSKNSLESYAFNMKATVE
Sequence of Hsc70 C17W (P63017 5-554 C17W): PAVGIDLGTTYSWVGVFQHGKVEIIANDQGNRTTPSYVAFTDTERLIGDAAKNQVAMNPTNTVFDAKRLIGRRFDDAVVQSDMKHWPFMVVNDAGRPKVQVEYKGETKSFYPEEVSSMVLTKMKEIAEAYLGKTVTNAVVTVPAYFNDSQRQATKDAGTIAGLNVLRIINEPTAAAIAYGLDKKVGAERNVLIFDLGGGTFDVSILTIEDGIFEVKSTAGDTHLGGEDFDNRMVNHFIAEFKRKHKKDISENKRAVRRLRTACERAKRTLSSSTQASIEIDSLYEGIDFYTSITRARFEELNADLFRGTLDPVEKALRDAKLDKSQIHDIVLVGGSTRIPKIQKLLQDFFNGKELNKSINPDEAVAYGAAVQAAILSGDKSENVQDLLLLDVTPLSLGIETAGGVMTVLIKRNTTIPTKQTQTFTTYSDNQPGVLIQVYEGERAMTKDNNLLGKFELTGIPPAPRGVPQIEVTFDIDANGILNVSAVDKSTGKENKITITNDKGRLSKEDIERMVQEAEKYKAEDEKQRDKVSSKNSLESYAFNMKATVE

With `Nc1ncnc2c1ncn2[C@@H]1O[C@H](COP(=O)(O)OP(=O)(O)OP(=O)(O)O)[C@@H](O)[C@H]1O` [ATP], the results for the Kd at Hsc70 and on Hsc70 C17W were 210 ± 40 nM and 160 ± 60 nM, respectively.

Source of the values: article PMC5839340 (Biochemistry, 2018).
